# Legend:
# [1] = target: T1, glucocerebrosidase (Gcase) (Homo sapiens, UniProt P04062); experiment: Glucocerebrosidase (Gcase) activation assay, 4-methylumbelliferyl-beta-D-glucopyranoside substrate, with saposin C; format: biochemical; settings: for Percent Gcase Activation, 1 μM Test Compound / activation at 1 µM: test compound at 1.0 μM; for activation at 0.1 µM: read-out: Percent Gcase Activation, 0.1 μM Test Compound; for activation at 1 µM: read-out: Percent Gcase Activation, 1 μM Test Compound
# T1 sequence (P04062 40-536): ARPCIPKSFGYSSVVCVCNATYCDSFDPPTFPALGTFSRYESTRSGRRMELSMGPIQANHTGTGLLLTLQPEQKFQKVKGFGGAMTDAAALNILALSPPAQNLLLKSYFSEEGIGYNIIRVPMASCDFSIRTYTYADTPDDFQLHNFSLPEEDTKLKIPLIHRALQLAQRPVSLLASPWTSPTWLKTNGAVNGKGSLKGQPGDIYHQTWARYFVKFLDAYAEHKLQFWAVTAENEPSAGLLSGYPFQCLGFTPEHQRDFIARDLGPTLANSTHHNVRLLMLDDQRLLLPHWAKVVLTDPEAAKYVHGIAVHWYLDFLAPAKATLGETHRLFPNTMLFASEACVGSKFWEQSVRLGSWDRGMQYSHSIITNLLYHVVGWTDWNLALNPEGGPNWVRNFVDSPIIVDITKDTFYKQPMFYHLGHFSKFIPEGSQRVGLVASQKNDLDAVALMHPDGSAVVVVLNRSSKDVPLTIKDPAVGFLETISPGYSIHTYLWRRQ
# Method: The ability of exemplary compounds to activate glucocerebrosidase (Gcase) was measured.
# A 484 μL aliquot of a 1.0 mg/mL solution of phosphatidylserine (PS) (Sigma P7769) in chloroform was evaporated under a stream of nitrogen for 1 hour. The lipid film was dissolved over 4 minutes of vigorous vortexing in 40 mL of 176 mM K2HPO4/50 mM citric acid (pH 4.7) containing 7.5 μL of triton X-100, resulting in a mixed micellar preparation with a composition of 0.32 mM triton and 0.37 mol % PS. 4-Methylumbelliferyl-beta-D-glucopyranoside (ACROS-337025000) was dissolved in the micellar solution to a final concentration of 2 mM for use as the reaction substrate.
# Test compounds were diluted to the desired concentrations with dimethylsulfoxide (DMSO) from 10 mM stocks, and 0.41 μL of the DMSO compound mixture was added to 100 μL of micellar solution containing 10 nM GCase and 100 nM saposin C (Enzo ALX-201-262-C050). Pre-incubation was allowed to occur for 30 minutes at room temperature, after which the reaction was initiated by combining 25 μL of substrate solution with 25 μL of compound/GCase/saposin mixture. The reaction proceeded for 15 minutes at room temperature and was stopped by adding 150 μL of 1M glycine, pH 12.5. The endpoint of the reaction was monitored by measuring fluorescence intensity (excitation: 365 nm; emission: 440 nm) on a SpectraMax i3 instrument (Molecular Devices). Test compounds were screened at 1.0 and 0.1 μM final concentration, and subsequent 8-point dose response curves were obtained using 3-fold dilutions from a maximum final concentration of 5 μM.
# [2] = Compound solubility in water; format: physicochemical
"Percent Gcase Activation, 1 μM Test Compound [1]",Compound Solubility in Water [2] [µg/mL],activation at 0.1 µM ([1]; test compound at 0.1 μM) [%],activation at 1 µM [1] [%],solubility [2] [µg/mL],SMILES,"Percent Gcase Activation, 0.1 μM Test Compound ([1]; test compound at 0.1 μM)"
+++ (Gcase activation greater than 60%),,,,,Cc1cc(C)n2cnc(C(=O)NC(C)C3CCCCC3)c2n1 (stereo not shown) [III-9],
+++ (Gcase activation greater than 60%),23.0,,,,Cc1cc(C)n2cnc(C(=O)NC(C)C3CCCCC3)c2n1 (stereo not shown) [III-10],** (Gcase activation in the range of 10% up to 20%)
,,> 20,> 60,0.9,Cc1cc(N)nc2c(C(=O)NC(c3ccc(F)cc3)C(F)(F)F)ncn12 (stereo not shown) [III-17],
,,< 10,30 to 60,10.6,Cc1cc(Oc2ccc(F)cc2)nc2c(C(=O)N[C@@H](C)C3CC3)ncn12 [III-77],
